Measurements: ChEMBL document CHEMBL1201862, “PubChem BioAssay data set” (2004)
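Step 1: Grow cells in 96-well plates. Step 2: Expose to compound for 48 hours at 5 concentrations. Step 3: Interpolate endpoints linearly; if unreached, use highest concentration. The concentration for 50% growth inhibition is given as GI50.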 The source made the active and inactive calls. Rule as the data show it: active = GI50 up to about 1.1 µM and inactive = higher.

What was measured:
Assay in all cases: NCI-60 cell line screen, 48 h
[1] = tested on: 786-0
[2] = tested on: A498
[3] = tested on: A549
[4] = tested on: ACHN
[5] = tested on: CAKI-1
[6] = tested on: CCRF-CEM
[7] = tested on: COLO 205
[8] = tested on: DU-145
[9] = tested on: EKVX
[10] = tested on: HCT-116
[11] = tested on: HCT-15
[12] = tested on: HL-60
[13] = tested on: HOP-62
[14] = tested on: HOP-92
[15] = tested on: HT-29
[16] = tested on: Hs-578T
[17] = tested on: KM12
[18] = tested on: LOX IMVI
[19] = tested on: M14
[20] = tested on: MCF7
[21] = tested on: MDA-MB-231
[22] = tested on: MDA-MB-435
[23] = tested on: MDA-N
[24] = tested on: Malme-3M
[25] = tested on: NCI-H226
[26] = tested on: NCI-H23
[27] = tested on: NCI-H460
[28] = tested on: NCI/ADR-RES
[29] = tested on: OVCAR-3
[30] = tested on: OVCAR-4
[31] = tested on: OVCAR-5
[32] = tested on: OVCAR-8
[33] = tested on: PC-3
[34] = tested on: RPMI-8226
[35] = tested on: RXF 393
[36] = tested on: SF-268
[37] = tested on: SF-295
[38] = tested on: SF-539
[39] = tested on: SK-MEL-28
[40] = tested on: SK-MEL-2
[41] = tested on: SK-MEL-5
[42] = tested on: SK-OV-3
[43] = tested on: SN12C
[44] = tested on: SNB-19
[45] = tested on: SNB-75
[46] = tested on: SW-620
[47] = tested on: T47D
[48] = tested on: TK-10
[49] = tested on: U-251
[50] = tested on: UACC-257
[51] = tested on: UACC-62
[52] = tested on: UO-31
[53] = tested on: HCC 2998
[54] = tested on: IGROV-1
[55] = tested on: K562
[56] = tested on: MOLT-4
[57] = tested on: NCI-H522
[58] = tested on: SR

SMILES: Cc1csc2nc(-c3ccc(Cl)c([N+](=O)[O-])c3)c(/C=N/NC(=N)N)n12
- GI50 [1]: 1.49 µM (inactive)
- GI50 [2]: 1.51 µM (inactive)
- GI50 [3]: 1.83 µM (inactive)
- GI50 [4]: 1.6 µM (inactive)
- GI50 [5]: 1.83 µM (inactive)
- GI50 [6]: 1.01 µM (active)
- GI50 [7]: 1.15 µM (inactive)
- GI50 [8]: 2.16 µM (inactive)
- GI50 [9]: 1.49 µM (inactive)
- GI50 [10]: 1.68 µM (inactive)
- GI50 [11]: 1.66 µM
- GI50 [12]: 1.7 µM (inactive)
- GI50 [13]: 1.61 µM (inactive)
- GI50 [14]: 0.163 µM (active)
- GI50 [15]: 1.77 µM (inactive)
- GI50 [16]: 1.4 µM (inactive)
- GI50 [17]: 1.75 µM (inactive)
- GI50 [18]: 1.51 µM (inactive)
- GI50 [19]: 1.74 µM (inactive)
- GI50 [20]: 1.26 µM (inactive)
- GI50 [21]: 1.77 µM (inactive)
- GI50 [22]: 1.69 µM (inactive)
- GI50 [23]: 1.32 µM (inactive)
- GI50 [24]: 1.9 µM (inactive)
- GI50 [25]: 1.67 µM (inactive)
- GI50 [26]: 1.7 µM (inactive)
- GI50 [27]: 1.78 µM (inactive)
- GI50 [28]: 2.21 µM (inactive)
- GI50 [29]: 1.96 µM (inactive)
- GI50 [30]: 1.64 µM (inactive)
- GI50 [31]: 1.21 µM (inactive)
- GI50 [32]: 0.406 µM (active)
- GI50 [33]: 1.48 µM (inactive)
- GI50 [34]: 1.75 µM (inactive)
- GI50 [35]: 1.63 µM (inactive)
- GI50 [36]: 1.71 µM (inactive)
- GI50 [37]: 1.4 µM (inactive)
- GI50 [38]: 1.61 µM (inactive)
- GI50 [39]: 1.82 µM (inactive)
- GI50 [40]: 1.22 µM (inactive)
- GI50 [41]: 1.52 µM (inactive)
- GI50 [42]: 1.84 µM (inactive)
- GI50 [43]: 1.76 µM (inactive)
- GI50 [44]: 1.3 µM (inactive)
- GI50 [45]: 1.57 µM (inactive)
- GI50 [46]: 0.384 µM (active)
- GI50 [47]: 1.81 µM (inactive)
- GI50 [48]: 2.2 µM (inactive)
- GI50 [49]: 1.5 µM (inactive)
- GI50 [50]: 0.459 µM (active)
- GI50 [51]: 1.72 µM (inactive)
- GI50 [52]: 1.12 µM (inactive)

SMILES: COc1cc(C(SCc2ccccc2)SCc2ccccc2)ccc1O
- GI50 [1]: > 10 µM (inactive)
- GI50 [2]: > 10 µM (inactive)
- GI50 [4]: > 10 µM (inactive)
- GI50 [5]: > 10 µM (inactive)
- GI50 [6]: > 10 µM (inactive)
- GI50 [7]: > 10 µM (inactive)
- GI50 [8]: > 10 µM (inactive)
- GI50 [9]: > 10 µM (inactive)
- GI50 [53]: > 10 µM (inactive)
- GI50 [10]: 7.41 µM (inactive)
- GI50 [11]: > 10 µM
- GI50 [12]: > 10 µM (inactive)
- GI50 [13]: > 10 µM (inactive)
- GI50 [14]: > 10 µM (inactive)
- GI50 [15]: > 10 µM (inactive)
- GI50 [16]: 6.12 µM (inactive)
- GI50 [54]: > 10 µM (inactive)
- GI50 [55]: > 10 µM (inactive)
- GI50 [17]: > 10 µM (inactive)
- GI50 [18]: > 10 µM (inactive)
- GI50 [19]: > 10 µM (inactive)
- GI50 [20]: > 10 µM (inactive)
- GI50 [21]: > 10 µM (inactive)
- GI50 [23]: > 10 µM (inactive)
- GI50 [56]: 9.33 µM (inactive)
- GI50 [24]: > 10 µM (inactive)
- GI50 [25]: > 10 µM (inactive)
- GI50 [27]: > 10 µM (inactive)
- GI50 [57]: > 10 µM (inactive)
- GI50 [28]: > 10 µM (inactive)
- GI50 [29]: > 10 µM (inactive)
- GI50 [32]: > 10 µM (inactive)
- GI50 [33]: > 10 µM (inactive)
- GI50 [34]: > 10 µM (inactive)
- GI50 [35]: 9.4 µM (inactive)
- GI50 [36]: > 10 µM (inactive)
- GI50 [37]: > 10 µM (inactive)
- GI50 [38]: > 10 µM (inactive)
- GI50 [39]: > 10 µM (inactive)
- GI50 [40]: > 10 µM (inactive)
- GI50 [41]: > 10 µM (inactive)
- GI50 [42]: 4.22 µM (inactive)
- GI50 [43]: > 10 µM (inactive)
- GI50 [44]: > 10 µM (inactive)
- GI50 [45]: > 10 µM (inactive)
- GI50 [58]: > 10 µM (inactive)
- GI50 [46]: > 10 µM (inactive)
- GI50 [47]: 8.97 µM (inactive)
- GI50 [48]: > 10 µM (inactive)
- GI50 [49]: > 10 µM (inactive)
- GI50 [51]: > 10 µM (inactive)
- GI50 [52]: 7.06 µM (inactive)

SMILES: NC1=C(N2CCOCC2)C(=O)NC2=N/C(=C\c3ccccc3O)C(=O)N21
- GI50 [1]: > 100 µM (inactive)
- GI50 [2]: > 100 µM (inactive)
- GI50 [3]: > 100 µM (inactive)
- GI50 [4]: > 100 µM (inactive)
- GI50 [5]: > 100 µM (inactive)
- GI50 [6]: > 100 µM (inactive)
- GI50 [7]: > 100 µM (inactive)
- GI50 [8]: > 100 µM (inactive)
- GI50 [9]: > 100 µM (inactive)
- GI50 [53]: 95.7 µM (inactive)
- GI50 [10]: > 100 µM (inactive)
- GI50 [11]: 51.1 µM
- GI50 [12]: 41.6 µM (inactive)
- GI50 [14]: 51.8 µM (inactive)
- GI50 [15]: > 100 µM (inactive)
- GI50 [16]: > 100 µM (inactive)
- GI50 [54]: > 100 µM (inactive)
- GI50 [55]: 52.2 µM (inactive)
- GI50 [17]: > 100 µM (inactive)
- GI50 [18]: > 100 µM (inactive)
- GI50 [19]: > 100 µM (inactive)
- GI50 [20]: > 100 µM (inactive)
- GI50 [21]: > 100 µM (inactive)
- GI50 [22]: > 100 µM (inactive)
- GI50 [23]: > 100 µM (inactive)
- GI50 [56]: 31.6 µM (inactive)
- GI50 [24]: 84.3 µM (inactive)
- GI50 [25]: 59.6 µM (inactive)
- GI50 [26]: > 100 µM (inactive)
- GI50 [27]: 89.3 µM (inactive)
- GI50 [57]: 76.2 µM (inactive)
- GI50 [28]: > 100 µM (inactive)
- GI50 [30]: 13.5 µM (inactive)
- GI50 [31]: > 100 µM (inactive)
- GI50 [32]: > 100 µM (inactive)
- GI50 [34]: 20.5 µM (inactive)
- GI50 [35]: > 100 µM (inactive)
- GI50 [36]: > 100 µM (inactive)
- GI50 [37]: > 100 µM (inactive)
- GI50 [38]: > 100 µM (inactive)
- GI50 [39]: > 100 µM (inactive)
- GI50 [41]: 73.6 µM (inactive)
- GI50 [42]: > 100 µM (inactive)
- GI50 [43]: > 100 µM (inactive)
- GI50 [44]: > 100 µM (inactive)
- GI50 [45]: > 100 µM (inactive)
- GI50 [58]: 35.6 µM (inactive)
- GI50 [46]: > 100 µM (inactive)
- GI50 [47]: 51.2 µM (inactive)
- GI50 [48]: > 100 µM (inactive)
- GI50 [49]: > 100 µM (inactive)
- GI50 [50]: > 100 µM (inactive)
- GI50 [52]: > 100 µM (inactive)
